One assay concerns the target T1, mTOR (Homo sapiens, UniProt P42345).
T1 construct: capturing of endogenously expressed target proteins from cell extracts by a bead-immobilized capturing ligand; endogenous in cells; host or cells: HuT-78 cells (ECACC 88041901), cell lysate
Nature of the assay: mTOR kinobeads assay (competition-binding assay). The conditions noted are these: HuT-78 cell extract, endogenously expressed mTOR, bead-immobilized capturing ligand; mean of multiple experiments; read-out: mean pIC50, affinity for mTOR (converted). The procedure:
The affinity of test compounds for mTOR was determined in the mTOR kinobeads assay. This is a competition-binding assay based on the capturing of endogenously expressed target proteins from cell extracts by a bead-immobilized capturing ligand in presence of the test compound.
HuT-78 cells (European Collection of Authenticated Cell Cultures, 88041901) were cultured according to vendor's instructions. Frozen cell pellets were homogenized in 3× pellet volumes lysis buffer (50 mM Tris-HCl, 0.4% (v/v) Igepal-CA630, 5% glycerol, 150 mM NaCl, 1.5 mMMgCl2, 25 mM NaF, 1 mM sodium vanadate, 1 mM DTT, pH 7.5, supplemented with EDTA-free protease inhibitor tablet (Roche)). The sample was dispersed using a Dounce homogenizer, kept rotating for 30 min at 4° C., and centrifuged for 10 min at 20 000 g at 4° C. The supernatant was centrifuged again for 1 h at 145 000 g. The protein concentration was determined by Bradford assay (BioRad), aliquots were snap frozen in liquid nitrogen and stored at −80° C.
The capturing matrices were generated by derivatizing N-hydroxysuccinimide (NHS) activated Sepharose 4 beads (GE Healthcare) with the functionalized ligands Compound A and Compound C at a ligand density of 5 mM. Remaining NHS-groups were blocked with ethanolamine.
For the mTOR kinobeads assay the matrices were combined in a 1:1 ratio and equilibrated in DP buffer (50 mM Tris-HCl (pH 7.5), 0.4% (v/v) Igepal-CA630, 5% (v/v) glycerol, 150 mM NaCl, 1.5 mM MgCl2, 25 mM NaF, 1 mM Na3VO4, 1 mM dithiothreitol). All steps of the mTOR kinobeads assay were performed at 4° C. or on ice. The cell lysate was diluted with DP buffer to a final concentration of 5 mg/ml and a final detergent concentration of 0.4% (v/v) Igepal-CA630. For the assay 250 μg cell lysate and 2.5 μl capturing matrix per well (final assay volume: 75 μl) were incubated in the presence of test compounds in a 384-well filter plate (MultiScreenHTS HV Filter Plate, 0.45 μm, MZHVNOW50, Merck Millipore). Each plate contained 16 positive (100 μM Compound B) and 16 negative (2% v/v DMSO) control wells. Compounds were tested in a concentration-response applying 1:3 or 1:4 dilution steps for in total 11 data points. DMSO concentration was 2% (v/v). After 2 h incubation on an overhead shaker (Roto-Shake Genie, Scientific Industries Inc.) at 4° C. the non-bound fraction was removed by washing the beads with DP buffer. Proteins retained on the beads were eluted in SDS sample buffer (200 mM Tris (pH 7.4), 250 mM Trizma Base, 4% (w/v) SDS, 20% (v/v) glycerol, 0.01% (w/v) bromophenol blue, 50 mM dithiothreitol) into a collection plate (384 well polypropylene microplate, V-shape, Greiner, 781 280). Eluates were spotted on nitrocellulose membranes (400 nl per spot) using an automated pin-tool liquid transfer (Biomek FX, Beckman). After drying, the membranes were rehydrated in 20% (v/v) ethanol and blocked by incubation with Odyssey blocking buffer (LICOR, 927-40000) for 1 h at room temperature. Blocked membranes were incubated overnight at 25° C. with Odyssey blocking buffer supplemented with a specific anti-mTOR antibody (Cell Signaling, 2972; 1:500) and 0.4% TWEEN-20. Then the membranes were washed in PBST buffer and incubated for 60 minutes at room temperature with the detection antibody (IRDye™ labelled antibody from LI-COR) diluted in Odyssey blocking buffer (LICOR 927-40000) containing 0.2% TWEEN-20. Then the membranes were washed with PBST and finally rinsed twice with PBS buffer to remove residual Tween-20. The membranes were then scanned with the Odyssey® Infrared Imaging System (LI-COR Biosciences). Fluorescence signals were recorded and analyzed according to the instructions of the manufacturer. Concentration response curves were computed with the software Activity Base. All data were normalized to the mean of 16 high (negative control) and 16 low (positive control) control wells on each plate. […]

Assay [1] concerns phosphorylated Akt at serine 473 (pAKTs473) in primary human lung fibroblasts. Briefly: Highthroughput phosphorylated Akt (Ser473) in vitro immunoassay (MSD). The class given is cell-based. As to conditions: Fibroblast, 1 h compound, PDGF-BB 10 ng/ml for 10 min, mean of multiple experiments, read-out: mean pIC50, inhibition of pAkt (Ser473) (converted). The text has this:
Highthroughput Phosphorylated Akt (Ser473) In Vitro Immunoassay
Immunoassay to measure effect of test compounds on phosphorylated Akt at serine 473 (pAKTs473) in primary human lung fibroblasts (Lonza Group Ltd, Basel, Switzerland, Catalogue No. CC-2512) using the MesoScale Discovery (MSD) platform to quantify levels of total Akt and pAKTser473.
Human lung fibroblasts were routinely maintained in fibroblast basal medium supplemented with 2% foetal bovine serum (FBS), 0.1% human fibroblast growth factor (FGF)-B, 0.1% insulin, 0.1% GA-100 (Lonza Group Ltd, Basel, Switzerland, Catalogue No. CC-3132) at 37° C. in 5% CO2 according to the manufacturer's protocol.
For the assay, cells were harvested using Trypsin/EDTA, (Lonza Group Ltd, Basel, Switzerland, Catalogue No. CC-5012), at working concentration of 0.025%, resuspended to give 3×10^5 cells/ml and 50 ul/well seeded into 384-well plates (Greiner Group, Kremsmunster, Austria, Catalogue No. 781091) in media containing 0.4% FBS and incubated o/n at 37° C. in 5% CO2.
Test compounds were dissolved in 100% DMSO to give 10 mM stock solutions and serially diluted to generate an 11-point concentration response curve. Compound were further diluted by […] into 384-well V-bottom polypropylene plates (Greiner Group, Kremsmunster, Austria, Catalogue No. 781280) with media containing 0.4% FBS to give 50 μM top compound concentration in 0.5% DMSO.
Compounds were transferred to 384-well plates contacting cells (0.1% DMSO final) and incubated for 1 h at 37° C. in 5% CO2, prior to stimulation with platelet-derived growth factor (PDGF)-BB (R&D Systems, Catalogue No. 220-BB) at 10 ng/ml (final) for 10 min at RT. Cell assay plates were incubated on ice and treated with lysis buffer (Cell Signalling Technology, Catalogue No. 9806) containing protease and phosphatase inhibitors (Thermo Scientific, Catalogue No. 78444) followed by shaking for 30 min at 4° C.
MSD plates (MSD, MA6000 384-well GAR plate, Catalogue No. L21RA-2) were blocked with blocking buffer containing TBS (MSD, Cat. No. R61TX-1) with 0.5% bovine serum albumin (BSA) (Sigma Aldrich, Cat. No. A7906), 0.1% tween-20 (Sigma Aldrich, Catalogue No. P2287) and coated with rabbit-anti-human pAkt (s473) ab (Cell Signalling Technology, Catalogue No. CST #4060) at RT with shaking, followed by washing (×3) with 1×TBS wash reagent containing 0.1% Tween-20. Cell lysates (30 ul) were added and MSD plates centrifuged at 1000 rpm at 4° C. o/n.
Plates were washed with 1×TBS wash buffer (×3), prior to addition of mouse-anti-human-total Akt ab (1 mg/ml) (Upstate (Milipore), Catalogue No. 05-591) in blocking buffer and shaken at RT for 1 h. After washing with 1×TBS wash buffer (×3), plates were incubated with goat-anti-mouse SULFO-TAG detection ab (MSD, Catalogue No. R32AC-1) (1:500 in blocking buffer) for 1 h at RT. Plates were washed with 1×TBS (×3) and read buffer (2×) (MSD, Catalogue No. R92TC-1) added before detecting electrochemiluminescence (MSD Sector Imager 6000).
Data analysis was performed by determining % inhibition values for test compounds relative to the minimum (+PDGF-BB stimulation) and maximum responses (no PDGF-BB stimulation) with non-linear regression analysis to determine IC50 values for test compounds.

Where “and” joins values, the source holds several entries; their conditions need not be identical. Equal values may be shown once.

Consider 13 compounds from patent US11254671B2, “Chemical compounds” (GLAXOSMITHKLINE INTELLECTUAL PROPERTY DEVELOPMENT LIMITED, priority 2017, dated 2022).

For the compound `CC[C@H]1COCCN1c1cc(C(C)(C)S(C)(=O)=O)cc(-c2ccc3[nH]c(CNC)cc3n2)n1` [Example 1, [(5-{6-[(3S)-3-ethylmorpholin-4-yl]-4-(2-methanesulfonylpropan-2-yl)pyridin-2-yl}-1H-pyrrolo[3,2-b]pyridin-2-yl)methyl](methyl)amine], the IC50 on mTOR is 2.51 to 31.6 nM and 15.8 nM and 2.51 to 316 nM. Take `CC[C@H]1COCCN1c1cc(CS(C)(=O)=O)cc(-c2ccc3[nH]c(CN(C)CC)cc3n2)n1` [Example 14, (S)—N-((5-(6-(3-ethylmorpholino)-4-((methylsulfonyl)-methyl)pyridin-2-yl)-1H-pyrrolo[3,2-b]pyridin-2-yl)-methyl)-N-methylethanamine]: the IC50 is 2.51 to 316 nM at mTOR and 3.16 to 316 nM in assay [1]. Regarding `CC[C@H]1COCCN1c1cc(C2(S(C)(=O)=O)CCOCC2)cc(-c2ccc3[nH]c(CNC)cc3n2)n1` [Example 15, (S)-1-(5-(6-(3-ethylmorpholino)-4-(4-(methylsulfonyl)tetrahydro-2H-pyran-4-yl)pyridin-2-yl)-1H-pyrrolo[3,2-b]pyridin-2-yl)-N-methylmethanamine], the IC50 at mTOR is 2.51 to 31.6 nM and 7.94 nM and 2.51 to 316 nM; in assay [1], 2.51 to 10 nM. For `CC[C@H]1COCCN1c1cc(C2(S(C)(=O)=O)CCOCC2)cc(-c2ccc3[nH]c(CN(C)CC)cc3n2)n1` [Example 16, (S)—N-((5-(6-(3-ethylmorpholino)-4-(4-(methylsulfonyl)tetrahydro-2H-pyran-4-yl)pyridin-2-yl)-1H-pyrrolo[3,2-b]pyridin-2-yl)methyl)-N-methylethanamine], the IC50 was 2.51 to 316 nM at mTOR and 3.16 to 316 nM in assay [1]. In the case of `CC[C@H]1COCCN1c1cc(C2(S(C)(=O)=O)CCNCC2)cc(-c2ccc3[nH]c(CNC)cc3n2)n1` [Example 24, [(5-{6-[(3S)-3-ethylmorpholin-4-yl]-4-(4-methanesulfonylpiperidin-4-yl)pyridin-2-yl}-1H-pyrrolo[3,2-b]pyridin-2-yl)methyl](methyl)amine], the IC50 at mTOR is 2.51 to 31.6 nM and 2.51 to 316 nM; in assay [1], 3.16 to 316 nM. Regarding `CNCc1cc2nc(-c3cc(CS(C)(=O)=O)cc(N4CCOC[C@H]4C)n3)ccc2[nH]1` [Example 26, ({5-[4-(methanesulfonylmethyl)-6-[(3R)-3-methylmorpholin-4-yl]pyridin-2-yl]-1H-pyrrolo[3,2-b]pyridin-2-yl}methyl)(methyl)amine], the IC50 is 2.51 to 316 nM at mTOR and 3.16 to 316 nM in assay [1].

Regarding `CC[C@H]1COCCN1c1cc(C2(S(N)(=O)=O)CCOCC2)cc(-c2ccc3[nH]c(CNC)cc3n2)n1` [Example 27, 4-{2-[(3S)-3-ethylmorpholin-4-yl]-6-{2-[(methylamino)methyl]-1H-pyrrolo[3,2-b]pyridin-5-yl}pyridin-4-yl}oxane-4-sulfonamide], in assay [1], the IC50 is 3.16 to 316 nM. On to `CC[C@H]1COCCN1c1cc(CS(N)(=O)=O)cc(-c2ccc3[nH]c(CNC)cc3n2)n1` [Example 29, {2-[(3S)-3-ethylmorpholin-4-yl]-6-{2-[(methylamino)methyl]-1H-pyrrolo[3,2-b]pyridin-5-yl}pyridin-4-yl}methanesulfonamide], for which the IC50 on mTOR is 2.51 to 31.6 nM and 2.51 to 316 nM; in assay [1], 3.16 to 316 nM.

On to `CC[C@H]1COCCN1c1cc(C2(S(C)(=O)=O)CCNCC2)cc(-c2ccc3[nH]c(CO)cc3n2)n1` [Example 36], for which the IC50 at mTOR is 2.51 to 31.6 nM and 2.51 to 316 nM; in assay [1] it was 3.16 to 316 nM. In the case of `CNCc1cc2nc(-c3cc(C4(S(C)(=O)=O)CCOCC4)cc(N4CC5CCC(C4)O5)n3)ccc2[nH]1` [Example 37, ({5-[4-(4-methanesulfonyloxan-4-yl)-6-{8-oxa-3-azabicyclo[3.2.1]octan-3-yl}pyridin-2-yl]-1H-pyrrolo[3,2-b]pyridin-2-yl}methyl)(methyl)amine], the IC50 at mTOR is 2.51 to 31.6 nM and 2.51 to 316 nM; in assay [1], 3.16 to 316 nM. As to `CC[C@H]1COCCN1c1cc(C2(S(C)(=O)=O)CCN(C(C)=O)CC2)cc(-c2ccc3[nH]c(CNC)cc3n2)n1` [Example 39, 1-(4-{2-[(3S)-3-ethylmorpholin-4-yl]-6-{2-[(methylamino)methyl]-1H-pyrrolo[3,2-b]pyridin-5-yl}pyridin-4-yl}-4-methanesulfonylpiperidin-1-yl)ethan-1-one], at mTOR, the IC50 was 2.51 to 316 nM. With `CNCc1cc2nc(-c3cc(CS(C)(=O)=O)cc(N4CCCOCC4)n3)ccc2[nH]1` [Example 45, ({5-[4-(methanesulfonylmethyl)-6-(1,4-oxazepan-4-yl)pyridin-2-yl]-1H-pyrrolo[3,2-b]pyridin-2-yl}methyl)(methyl)amine], the IC50 on mTOR was 2.51 to 316 nM. `CNCc1cc2nc(-c3cc(CS(C)(=O)=O)cc(N4CCOCC4)n3)ccc2[nH]1` [Example 46, ({5-[4-(methanesulfonylmethyl)-6-(morpholin-4-yl)pyridin-2-yl]-1H-pyrrolo[3,2-b]pyridin-2-yl}methyl)(methyl)amine]: the IC50 at mTOR is 2.51 to 316 nM.
